Experimental data: US8012967B2, “Minor groove binders” (University of Strathclyde, priority 2006, dated 2011)
≈ marks a conversion by molar mass, not a printed value. Values belong to the molecule of their own block, whether it stands above or below them.

Tests used:
[1] = test system: clinical strains of S. aureus in the Scottish Clinical Isolates Collection; assay: MIC against collected clinical strains of S. aureus (BSAC03/04/05 (1)-(10)); format: cell-based, Staphylococcus aureus
Text: (§1) In particular, minimum inhibitory concentrations (MICs) against microorganisms (e.g. S. Aureus, Streptococcus faecalis, Aspergillus niger, Candida albicans or Mycobacterium fortuitum) for compounds of the invention may be measured using procedures such as those described in A. J. Drummond and R. D. Waigh “The development of microbiological methods for phytochemical screening” Recent Res. Devel. Phytochem. 4, 143-152 (2000), the disclosures of which document are hereby incorporated by reference.
(§2) Sample dilutions were typically prepared by dissolving the test sample (2 mg) in sterile water (10 mL) to provide a working concentration of 200 μg/ml. The test wells on each 96 well microtitre plate were initially inoculated with culture medium (100 μL) using Mueller-Hinton Broth for antibacterial assays and Sabouraud Broth for antifungal assays. A solution of each test sample (100 μL) was added to one row of each plate and a series of doubling dilutions made for successive rows. Incubation was at 37° C. for antibacterial assay and 25° C. for antifungal assay. […] From the observed pattern of colour, the MIC was determined. All tests included sterility and growth controls.
BSAC03/04/05 (1)-(10) refer to collected clinical strains of S. aureus in the Scottish Clinical Isolates Collection.

[2] = test system: Mycobacter fortuitum (NCTC 10394); assay: MIC, Mycobacter fortuitum; format: cell-based
Procedure: (§3) The effects of compounds of the invention in relation to inhibiting the growth of various microorganisms was determined using methods known to those skilled in the art, for example in vitro methods as described in J. Med. Chem. 47, 2133-2156 (2004) and in vivo methods as described in J. Med. Microbiol. 46, 208-213 (1997), the disclosures of which documents are hereby incorporated by reference. In particular, minimum inhibitory concentrations (MICs) against microorganisms (e.g. S. Aureus, Streptococcus faecalis, Aspergillus niger, Candida albicans or Mycobacterium fortuitum) for compounds of the invention may be measured using procedures such as those described in A. J. Drummond and […] development of microbiological methods for phytochemical screening” Recent Res. Devel. […] The test wells on each 96 well microtitre plate were initially inoculated with culture medium (100 μL) using Mueller-Hinton Broth for antibacterial assays and Sabouraud Broth for antifungal assays. A solution of each test sample (100 μL) was added to one row of each plate and a series of doubling dilutions made for successive rows. Incubation was at 37° C. for antibacterial assay and 25° C. for antifungal assay. […] From the observed pattern of colour, the MIC was determined. All tests included sterility and growth controls.

[3] = test system: Candida albicans (NCPF3179); assay: MIC, Candida albicans; format: cell-based
Procedure: as §3

[4] = test system: Aspergillus niger (IMI 1745); assay: MIC, Aspergillus niger; format: cell-based
Procedure: as §3

[5] = test system: Staphylococcus aureus Strain 2 (NCTC 6571); assay: MIC, Staphylococcus aureus Strain 2; format: cell-based
Procedure: as §3

[6] = test system: Staphylococcus aureus Strain 1 (BSAC04(1)) (Clinical isolate from Glasgow Royal Infirmary); assay: MIC, Staphylococcus aureus Strain 1; format: cell-based
Procedure: The effects of compounds of the invention in relation to inhibiting the growth of various microorganisms was determined using methods known to those skilled in the art, for example in vitro methods as described in J. Med. Chem. 47, 2133-2156 (2004) and in vivo methods as described in J. Med. Microbiol. 46, 208-213 (1997), the disclosures of which documents are hereby incorporated by reference.
as §1, §2

[7] = test system: Streptococcus faecalis (NCTC 775); assay: MIC, Streptococcus faecalis; format: cell-based
Procedure: as §3

[8] = test system: DNA; settings: background statement, cited from earlier work; for DNA sequence preference: result in words; for Kd: read-out: dissociation constants (binding to DNA)
[9] = value in parentheses, na = not active

Minimum inhibitory concentrations (MICs) ([1]; S. aureus BSAC culture year 2003 number 1): 0.5 µg/mL (≈ 0.817 µM)
Minimum inhibitory concentrations (MICs) ([1]; S. aureus BSAC culture year 2003 number 2): 4 µg/mL (≈ 6.54 µM)
Minimum inhibitory concentrations (MICs) ([1]; S. aureus BSAC culture year 2003 number 3): 0.5 µg/mL (≈ 0.817 µM)
Minimum inhibitory concentrations (MICs) ([1]; S. aureus BSAC culture year 2003 number 4): 0.5 µg/mL (≈ 0.817 µM)
Minimum inhibitory concentrations (MICs) ([1]; S. aureus BSAC culture year 2003 number 5): 0.5 µg/mL (≈ 0.817 µM)
Minimum inhibitory concentrations (MICs) ([1]; S. aureus BSAC culture year 2003 number 6): 1 µg/mL (≈ 1.63 µM)
Minimum inhibitory concentrations (MICs) ([1]; S. aureus BSAC culture year 2003 number 7): 0.5 µg/mL (≈ 0.817 µM)
Minimum inhibitory concentrations (MICs) ([1]; S. aureus BSAC culture year 2003 number 8): 0.5 µg/mL (≈ 0.817 µM)
Minimum inhibitory concentrations (MICs) ([1]; S. aureus BSAC culture year 2003 number 9): 2 µg/mL (≈ 3.27 µM)
Minimum inhibitory concentrations (MICs) ([1]; S. aureus BSAC culture year 2003 number 10): 0.5 µg/mL (≈ 0.817 µM)
Minimum inhibitory concentrations (MICs) ([1]; S. aureus BSAC culture year 2004 number 1): 0.5 µg/mL (≈ 0.817 µM)
Minimum inhibitory concentrations (MICs) ([1]; S. aureus BSAC culture year 2004 number 2): 4 µg/mL (≈ 6.54 µM)
Minimum inhibitory concentrations (MICs) ([1]; S. aureus BSAC culture year 2004 number 3): 2 µg/mL (≈ 3.27 µM)
Minimum inhibitory concentrations (MICs) ([1]; S. aureus BSAC culture year 2004 number 4): 2 µg/mL (≈ 3.27 µM)
Minimum inhibitory concentrations (MICs) ([1]; S. aureus BSAC culture year 2004 number 5): 0.5 µg/mL (≈ 0.817 µM)
Minimum inhibitory concentrations (MICs) ([1]; S. aureus BSAC culture year 2004 number 6): 0.5 µg/mL (≈ 0.817 µM)
Minimum inhibitory concentrations (MICs) ([1]; S. aureus BSAC culture year 2004 number 7): 1 µg/mL (≈ 1.63 µM)
Minimum inhibitory concentrations (MICs) ([1]; S. aureus BSAC culture year 2004 number 8): 1 µg/mL (≈ 1.63 µM)
Minimum inhibitory concentrations (MICs) ([1]; S. aureus BSAC culture year 2004 number 9): 2 µg/mL (≈ 3.27 µM)
Minimum inhibitory concentrations (MICs) ([1]; S. aureus BSAC culture year 2004 number 10): 1 µg/mL (≈ 1.63 µM)
Minimum inhibitory concentrations (MICs) ([1]; S. aureus BSAC culture year 2005 number 1): 2 µg/mL (≈ 3.27 µM)
Minimum inhibitory concentrations (MICs) ([1]; S. aureus BSAC culture year 2005 number 2): 8 µg/mL (≈ 13.1 µM)
Minimum inhibitory concentrations (MICs) ([1]; S. aureus BSAC culture year 2005 number 3): 2 µg/mL (≈ 3.27 µM)
Minimum inhibitory concentrations (MICs) ([1]; S. aureus BSAC culture year 2005 number 4): 0.5 µg/mL (≈ 0.817 µM)
Minimum inhibitory concentrations (MICs) ([1]; S. aureus BSAC culture year 2005 number 5): 4 µg/mL (≈ 6.54 µM)
Minimum inhibitory concentrations (MICs) ([1]; S. aureus BSAC culture year 2005 number 6): 0.5 µg/mL (≈ 0.817 µM)
Minimum inhibitory concentrations (MICs) ([1]; S. aureus BSAC culture year 2005 number 7): 0.5 µg/mL (≈ 0.817 µM)
Minimum inhibitory concentrations (MICs) ([1]; S. aureus BSAC culture year 2005 number 8): 4 µg/mL (≈ 6.54 µM)
Minimum inhibitory concentrations (MICs) ([1]; S. aureus BSAC culture year 2005 number 9): 2 µg/mL (≈ 3.27 µM)
Minimum inhibitory concentrations (MICs) ([1]; S. aureus BSAC culture year 2005 number 10): 1 µg/mL (≈ 1.63 µM)
Minimum inhibitory concentrations (MICs), M. fortuitum [2, 9]: 50 µg/mL (≈ 81.7 µM)
MIC ([2]; value outside parentheses, read-out: Minimum inhibitory concentrations (MICs), M. fortuitum): 69 µM (≈ 42.2 µg/mL)
Minimum inhibitory concentrations (MICs), C. albicans [3, 9]: 25 µg/mL (≈ 40.9 µM)
MIC ([3]; value outside parentheses, read-out: Minimum inhibitory concentrations (MICs), C. albicans): 34 µM (≈ 20.8 µg/mL)
Minimum inhibitory concentrations (MICs), A. niger [4, 9]: 50 µg/mL (≈ 81.7 µM)
MIC ([4]; value outside parentheses, read-out: Minimum inhibitory concentrations (MICs), A. niger): 69 µM (≈ 42.2 µg/mL)
Minimum inhibitory concentrations (MICs), S. aureus 2 [5, 9]: 12.5 µg/mL (≈ 20.4 µM)
MIC ([5]; value outside parentheses, read-out: Minimum inhibitory concentrations (MICs), S. aureus 2): 17.2 µM (≈ 10.5 µg/mL)
Minimum inhibitory concentrations (MICs), S aureus 1 [6, 9]: 0.5 µg/mL (≈ 0.817 µM)
MIC ([6]; value outside parentheses, read-out: Minimum inhibitory concentrations (MICs), S aureus 1): 0.69 µM (≈ 0.422 µg/mL)
Minimum inhibitory concentrations (MICs), St. faecalis [7, 9]: 6.3 µg/mL (≈ 10.3 µM)
MIC ([7]; value outside parentheses, read-out: Minimum inhibitory concentrations (MICs), St. faecalis): 8.6 µM (≈ 5.26 µg/mL)
Structure (SMILES): COc1ccc(/C=C/c2ccc(C(=O)Nc3cc(C(=O)Nc4cc(C(=O)NCCN5CCOCC5)n(C)c4)n(C)c3)cn2)cc1 [Example 22]
microbicidal activity against a number of different strains of Staphylococcus aureus ([1]; result in words): displayed microbicidal activity

Structure (SMILES): Cn1cc(NC(=O)c2cc(NC(=O)CN=C(N)N)cn2C)cc1C(=O)NCCC(=N)N [Netropsin, netropsin]
DNA sequence preference [8]: preference for AT-rich regions of DNA
Kd [8]: ~10 µM

Structure (SMILES): Cn1cc(NC(=O)c2cc(NC(=O)c3cc(NC=O)cn3C)cn2C)cc1C(=O)NCCC(=N)N [distamycin]
DNA sequence preference [8]: preference for AT-rich regions of DNA
Kd [8]: ~10 µM
